System: Human histocytic lymphoma U937 cells
Assay: Intracellular ROS fluorescence assay (DCF-DA / DHR123) in U937 cells exposed to H2O2 and LPS
Assay type: cell-based
Experimental: Human histocytic lymphoma U937 cells (ATCC, Manassas, Va.) were initially cultured in RPMI-1640 media (ATCC, Manassas, Va.) containing 10% serum and 1% penicillin, and then transferred at a concentration of 2×10^5 cells/ml into media containing 1 ng/ml PMA for 48 hours at 37° C. The cells were starved overnight in serum-free culture media before exposure to dye.
Cells were washed with PBS buffer twice, and divided into two sets to be incubated with DCF-DA or DHR123 (Calibochem, La Jolla, Calif.) for 30 minutes at 30° C. Cells are washed with PBS twice to remove residual dye. Appropriate experimental controls are also maintained.
Cells are then divided into several groups, and various amounts of a 1% solution of α-tocopherol (Vitamin E), substance 1, or substance 2 is added to each of the groups, and incubated at 37° C. for 15 minutes. Cells then were washed twice with PBS to remove residual amounts of test compounds. ROS agents H2O2 and LPS then were added and incubated for different periods of time. Fluorescence of the cells then were read at excitation 485 nm and emission 530 nm for up to 5 hours.

Cc1c(C)c2c(c(C)c1O)CC[C@@](C)(CCC[C@H](C)CCC[C@H](C)CCCC(C)C)O2 [α-tocopherol]
reduction of oxidative level (2 ppm active, 2.5 mM hydrogen peroxide, FIG. 2): approximately 30%
capability in scavenging ROS or free radicals (10 ppm and 100 ppm active compared with 2 ppm, 2.5 mM hydrogen peroxide, FIG. 2): did not show enhanced capability in scavenging ROS or free radicals
cell fluorescence versus cells incubated without test compound (two hours of incubation, ROS at 2.5 mM and ROS stimulant, FIG. 1): cells incubated in the absence of a test compound but in the presence of the ROS at 2.5 mM and ROS stimulant fluoresce greater

Reference: patent US8927227B2, “Method of measuring effects of components on cell reactive oxygen species production” (Colgate-Palmolive Company, priority 2008, dated 2015)
